Results from ChEMBL document CHEMBL4808180, “Identification of 2,2-Dimethylbutanoic Acid (HST5040), a Clinical Development Candidate for the Treatment of Propionic Acidemia and Methylmalonic Acidemia” (J Med Chem, 2021).
Calls of active or inactive are those of the source. The calls are words filed in the database; no cut-off is given here.

Legend:
[1] = Drug metabolism in Gottingen minipig plasma assessed as HST5040-glucuronide metabolite formation at 10 mg/kg administered as single dose by LC/MS analysis; type: ADME, organism-based, Sus scrofa domesticus; details: pig, in vivo
[2] = Cmax in CD1 mouse at 30 mg/kg, iv; type: ADME, organism-based; design: route intravenous, dose 30 mg/kg; details: in vivo
[3] = Reduction of acetyl carnitine in human hepatocytes derived from propionic acidemia patient pretreated for 30 mins followed by 13C-isoleucine addition and measured after 1 hr by MS/MS analysis; type: functional, cell-based; details: hepatocyte
[4] = AUC (0 to infinity) in CD1 mouse at 30 mg/kg, iv; type: ADME, organism-based; design: time infinity, route intravenous, dose 30 mg/kg; details: in vivo
[5] = Reduction of propionyl carnitine in human hepatocytes derived from methylmalonic acidemia patient at 30 uM pretreated for 30 mins followed by 13C-isoleucine addition and measured after 1 hr by MS/MS analysis relative to control; type: functional, Hepatocyte; design: scale not given: the % may be the effect or the level left; details: time 90 min, 1.5 h
[6] = Cmax in Sprague-Dawley rat at 10 mg/kg, po; type: ADME, organism-based; design: route oral, dose 10 mg/kg; details: in vivo
Hepatocyte = assay: Cytotoxicity against minipig hepatocytes assessed as reduction in cell viability using radiolabeled compound; type: cell-based, Sus scrofa domesticus; details: pig
[7] = Reduction of propionyl-CoA in human hepatocytes derived from propionic acidemia patient at 30 uM pretreated for 30 mins followed by 13C-isoleucine addition and measured after 1 hr by MS/MS analysis relative to control; type: functional, Hepatocyte; design: scale not given: the % may be the effect or the level left; details: time 90 min, 1.5 h
[8] = Drug metabolism in Gottingen minipig plasma assessed as HST5040-carnitine metabolite formation at 10 mg/kg administered as single dose by LC/MS analysis; type: ADME, organism-based, Sus scrofa domesticus; details: pig, in vivo
[9] = Drug level in Gottingen minipig blood at 10 mg/kg, po using radiolabeled compound measured after 72 hrs by quantitative whole-body autoradiography; type: ADME, organism-based, Sus scrofa domesticus; details: pig, in vivo, BLD = below limit of detection
[10] = molecular target: Solute carrier family 22 member 1 (Homo sapiens) (UniProt O15245); assay: Inhibition of human OCT1 assessed as reduction in OCT1-mediated metformin transport at 14900 uM relative to control
Sequence of Solute carrier family 22 member 1 (Homo sapiens) (O15245 whole entry, looked up): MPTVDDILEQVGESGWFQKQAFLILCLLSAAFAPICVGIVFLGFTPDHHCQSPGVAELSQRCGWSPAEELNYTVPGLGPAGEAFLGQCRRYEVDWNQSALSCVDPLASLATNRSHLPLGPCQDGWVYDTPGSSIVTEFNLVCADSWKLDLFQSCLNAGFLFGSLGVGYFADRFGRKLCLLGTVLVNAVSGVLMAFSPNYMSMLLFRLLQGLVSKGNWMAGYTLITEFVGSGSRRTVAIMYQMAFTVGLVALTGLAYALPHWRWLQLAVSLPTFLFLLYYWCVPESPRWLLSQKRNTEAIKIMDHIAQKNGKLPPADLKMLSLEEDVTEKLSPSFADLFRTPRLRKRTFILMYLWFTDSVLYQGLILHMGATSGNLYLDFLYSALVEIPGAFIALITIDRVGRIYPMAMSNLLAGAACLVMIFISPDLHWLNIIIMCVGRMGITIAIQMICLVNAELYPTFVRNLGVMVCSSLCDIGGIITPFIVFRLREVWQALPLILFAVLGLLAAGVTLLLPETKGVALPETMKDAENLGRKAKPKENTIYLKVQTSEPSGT

[11] = Ratio of drug level in liver to plasma in Sprague-Dawley rat at 10 mg/kg, po measured at 1 hr post dose; type: ADME, organism-based; details: liver (relative to plasma)
[12] = Half life in CD1 mouse at 300 mg/kg, po; type: ADME, organism-based; details: in vivo
[13] = Reduction of propionyl-CoA in human hepatocytes derived from methylmalonic acidemia pretreated for 30 mins followed by 13C-isoleucine addition and measured after 1 hr by MS/MS analysis; type: functional, cell-based; details: hepatocyte
[14] = Drug metabolism in Gottingen minipig urine assessed as HST5040-glucuronide metabolite formation at 10 mg/kg administered as single dose by LC/MS analysis; type: ADME, organism-based, Sus scrofa domesticus; details: pig, in vivo
[15] = Reduction of 2-Methylcitric acid in human hepatocytes derived from propionic acidemia patient pretreated for 30 mins followed by 13C-isoleucine addition and measured after 1 hr by MS/MS analysis; type: functional, cell-based; details: hepatocyte
[16] = Half life in CD1 mouse at 100 mg/kg, po; type: ADME, organism-based; details: in vivo
Cytochrome P450 3A4 = Cytochrome P450 3A4 (Homo sapiens, UniProt P08684); assay: Time-dependent inhibition of CYP3A4 in human liver microsomes using midazolam as substrate preincubated for 30 mins; type: ADME
Sequence of Cytochrome P450 3A4 (P08684 whole entry): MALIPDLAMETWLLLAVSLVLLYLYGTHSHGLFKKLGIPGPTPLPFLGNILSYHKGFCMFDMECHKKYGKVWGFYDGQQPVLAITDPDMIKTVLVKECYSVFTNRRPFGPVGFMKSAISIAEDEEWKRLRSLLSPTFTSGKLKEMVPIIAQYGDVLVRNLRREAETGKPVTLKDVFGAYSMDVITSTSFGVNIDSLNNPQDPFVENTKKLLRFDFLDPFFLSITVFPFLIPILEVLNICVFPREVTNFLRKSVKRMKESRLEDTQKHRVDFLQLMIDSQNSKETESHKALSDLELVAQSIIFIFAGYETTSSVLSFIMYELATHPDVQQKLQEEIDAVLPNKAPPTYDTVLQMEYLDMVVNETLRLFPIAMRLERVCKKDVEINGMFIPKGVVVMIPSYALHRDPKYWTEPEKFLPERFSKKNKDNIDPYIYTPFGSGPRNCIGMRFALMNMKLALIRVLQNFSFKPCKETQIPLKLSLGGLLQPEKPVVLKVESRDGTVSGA

[17] = Stability in rat hepatocytes assessed as unchanged compound at 50 uM measured after 4 hrs; type: ADME, cell-based, Hepatocyte; details: read-out: Stabilty
[18] = Protein binding in Gottingen minipig plasma at 40 uM incubated for 4 hrs by equilibrium dialysis; type: ADME, cell-free, Sus scrofa domesticus; details: pig, read-out: PPB (converted)
[19] = Drug metabolism in human hepatocytes derived from propionic acidemia patient assessed as formation of 2,2-dimethylbutanoic acid-CoA pretreated for 30 mins followed by 13C-isoleucine addition and measured after 1 hr by MS/MS analysis relative to control; type: ADME, cell-based; details: Hepatocyte
[20] = Reduction of acetyl-CoA in human hepatocytes pretreated for 30 mins followed by 13C-isoleucine addition and measured after 1 hr by MS/MS analysis; type: functional, Hepatocyte; design: scale not given: the % may be the effect or the level left; details: dose 30 µM, 0.5 h
[21] = Oral bioavailability in CD1 mouse at 100 mg/kg; type: ADME, organism-based; details: in vivo
[22] = Drug metabolism in Sprague-Dawley rat plasma assessed as HST5040-carnitine metabolite formation at 10 mg/kg administered as single dose by LC/MS analysis; type: ADME, organism-based; details: in vivo
[23] = Drug metabolism in mouse hepatocytes assessed as formation of 2,2-dimethylbutanoic acid-CoA incubated for 1 hrs by MS/MS analysis; type: ADME, cell-based; details: Hepatocyte
[24] = Cmax in CD1 mouse at 30 mg/kg, po; type: ADME, organism-based; design: route oral, dose 30 mg/kg; details: in vivo
[25] = Drug excretion in Sprague-Dawley rat urine at 10 mg/kg, po using radiolabeled compound measured at 1 hr post dose; type: ADME, organism-based; details: in vivo
[26] = Reduction of 2-Methylcitric acid in human hepatocytes derived from methylmalonic acidemia patient pretreated for 30 mins followed by 13C-isoleucine addition and measured after 1 hr by MS/MS analysis; type: functional, cell-based; details: hepatocyte
[27] = Cmax in Sprague-Dawley rat at 200 mg/kg, po; type: ADME, organism-based; design: route oral, dose 200 mg/kg; details: in vivo
[28] = Ratio of drug level in erythrocyte to plasma in human; type: ADME; details: erythrocytes and plasma
[29] = Tmax in CD1 mouse at 30 mg/kg, iv; type: ADME, organism-based; details: in vivo
[30] = Drug metabolism in Sprague-Dawley rat assessed as beta-oxidation by measuring phase1 metabolite formation at 10 mg/kg administered single dose using radiolabeled compound; type: ADME, organism-based; details: in vivo
[31] = Drug metabolism in Gottingen minipig plasma assessed as HST5040-glycine metabolite formation at 10 mg/kg administered as single dose by LC/MS analysis; type: ADME, organism-based, Sus scrofa domesticus; details: pig, in vivo
[32] = Induction of toxicity in minipig assessed as increase in albumin to […] ratio at 300 mg/kg/day; type: organism-based, Sus scrofa domesticus; details: pig, in vivo
[33] = AUC (0 to infinity) in CD1 mouse at 30 mg/kg, po; type: ADME, organism-based; design: time infinity, route oral, dose 30 mg/kg; details: in vivo
[34] = Reduction of acetyl-CoA in human hepatocytes derived from propionic acidemia patient at 30 uM pretreated for 30 mins followed by 13C-isoleucine addition and measured after 1 hr by MS/MS analysis relative to control; type: functional, Hepatocyte; design: scale not given: the % may be the effect or the level left; details: time 90 min, 1.5 h
Cytochrome P450 2B6 = molecular target: T1, Cytochrome P450 2B6 (Homo sapiens, UniProt P20813); assay: Direct inhibition of CYP2B6 in human liver microsomes using bupropion as substrate; type: ADME
T1 sequence (P20813 whole entry): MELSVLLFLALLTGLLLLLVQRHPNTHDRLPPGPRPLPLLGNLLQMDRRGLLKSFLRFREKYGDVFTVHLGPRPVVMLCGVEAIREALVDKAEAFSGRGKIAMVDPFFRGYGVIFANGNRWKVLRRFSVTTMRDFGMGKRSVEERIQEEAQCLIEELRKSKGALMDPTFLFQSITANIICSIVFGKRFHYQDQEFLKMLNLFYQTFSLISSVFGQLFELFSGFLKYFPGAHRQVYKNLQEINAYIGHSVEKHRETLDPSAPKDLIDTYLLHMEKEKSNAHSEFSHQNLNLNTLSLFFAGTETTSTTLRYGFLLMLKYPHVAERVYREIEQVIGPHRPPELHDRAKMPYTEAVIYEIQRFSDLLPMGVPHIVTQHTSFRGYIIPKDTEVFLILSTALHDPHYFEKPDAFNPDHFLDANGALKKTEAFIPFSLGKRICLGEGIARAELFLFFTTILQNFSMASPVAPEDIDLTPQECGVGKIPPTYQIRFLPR

[35] = Protein binding in human plasma at 40 uM incubated for 4 hrs by equilibrium dialysis; type: ADME, cell-free

Drug metabolism [1]: Metabolite_Detected
Cmax [2]: 59400 ng/mL
AUC(0-inf) [4]: 70200 ng·h/mL
Cmax [6]: 4270 ng/mL
Drug metabolism [8]: Metabolite_Detected
Drug uptake [9]: Bld
inhibition [10]: inactive
Kp at 1 h [11]: 4.6
half-life [12]: 1.91 h
Drug metabolism [14]: Metabolite_Detected
half-life [16]: 1.09 h
IC50 (Cytochrome P450 3A4): > 10000 µM
remaining at 4 h, 50 µM [17]: 86%
fraction unbound at 4 h, 40 µM [18]: 0.55
bioavailability [21]: 93.3%
Drug metabolism [22]: Metabolite_Detected
Cmax [24]: 33700 ng/mL
Drug excretion [25]: 72%
Cmax [27]: 113000 ng/mL
Kp [28]: 0.343
Tmax [29]: 7.5 min
Drug metabolism [30]: Metabolite_Notdetected
Drug metabolism [31]: Metabolite_Detected
AUC(0-inf) [33]: 37500 ng·h/mL
IC50 (Cytochrome P450 2B6): > 10000 µM
PPB [35]: 0%
Compound: CCC(C)(C)C(=O)O [DIMEBUTIC ACID]
EC50 [3]: 4.8 µM
Activity [5]: -65.9%
Activity (Hepatocyte): Non-Toxic
Activity [7]: -78.8%
EC50 [13]: 2.1 µM
EC50 [15]: 1.1 µM
EC50 [19]: 3 µM
Activity [20]: 20%
EC50 [23]: 130 µM
EC50 [26]: 0.8 µM
Activity [32]: Toxic
Activity [34]: 54%
